Drawing on US9102614B2, “Naphth-2-ylacetic acid derivatives to treat AIDS” (Gilead Sciences, Inc., priority 2010, dated 2015), this text covers EC50 for 22 molecules.

The term EC50 denotes the concentration giving half of the maximal effect.

Where two headings read alike, the source gives them in different places.

The experiment concerns HIV-IIIb. The experiment can be described thus: Test A: Antiviral Assays in MT4 Cells. In kind it is cell-based. In short, it runs like this: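 MT-4 cells pre-infected with HIV-IIIb (0.004 m.o.i.) at 37 °C, then plated with 3-fold serially diluted compound (10 concentrations, quadruplicate, RPMI 1640/10% FBS). After 5 days at 37 °C, cell viability read by CellTiter-Glo chemiluminescence; mock-infected cells run in parallel.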

Setting [1] is: Human immunodeficiency virus 1, IIIB, MT4, 120 h, MT-4 cells infected with HIV-IIIb (0.004 m.o.i.), 5 days of incubation, CellTiter-Glo chemiluminescence readout, read-out: EC50.
[2] abbreviates: MT-4 cells infected with HIV-IIIb (0.004 m.o.i.), 5 days of incubation, CellTiter-Glo chemiluminescence readout, read-out: EC50.

As for `CC(C)(C)O[C@H](C(=O)O)c1c(CN2CCOCC2)cc2ccccc2c1-c1ccc(Cl)cc1` [Compound 27, (S)-2-tert-Butoxy-2-(1-(4-chlorophenyl)-3-(morpholinomethyl)naphthalen-2-yl)acetic acid], under setting [1], the EC50 is 3500 nM.
With `Cc1cc2c(F)c(CN(C)C)ccc2c(-c2ccc3c4c(ccnc24)CCO3)c1[C@H](OC(C)(C)C)C(=O)O` [Compound 186A, (S)-2-tert-butoxy-2-((R)-1-(2,3-dihydropyrano[4,3,2-de]quinolin-7-yl)-6-((dimethylamino)methyl)-5-fluoro-3-methylnaphthalen-2-yl)acetic acid], the EC50 under setting [2] turned out to be 1690 nM.
Same read-out and setting: the figure for `Cc1cc2cc(C)c([C@H](OC(C)(C)C)C(=O)O)c(-c3ccc4c5c(ccnc35)CCO4)c2cc1F` (atropisomer, axis not shown) [Compound 156] is 7300 nM.
As to `Cc1c([C@H](OC(C)(C)C)C(=O)O)c(-c2ccc3c4c(ccnc24)CCO3)c2ccccc2c1F` (atropisomer, axis not shown) [Compound 178], the EC50 under setting [1] came to 34000 nM.
For the molecule `Cc1cc2c(Cl)cccc2c(-c2ccc3c4c(ccnc24)CCO3)c1C(OC(C)(C)C)C(=O)O` (stereo not shown) [Compound 163], under setting [2], the EC50 turned out to be 16000 nM.
`Cc1cc2c(F)cc(F)cc2c(-c2ccc3c4c(ccnc24)CCO3)c1[C@H](OC(C)(C)C)C(=O)O` (atropisomer, axis not shown) [Compound 172]: under setting [1], the EC50 was found to be 50000 nM.
With `Cc1cc2c(F)c(C)ccc2c(-c2ccc3c4c(ccnc24)CCO3)c1[C@H](OC(C)(C)C)C(=O)O` [Compound 119, (S)-2-tert-Butoxy-2-((R)-1-(2,3-dihydropyrano[4,3,2-de]quinolin-7-yl)-5-fluoro-3,6-dimethylnaphthalen-2-yl)acetic acid], the concentration giving a half-maximal response (EC50) under setting [2] stood at 11 nM.
The same measure, in the same setting: the figure for `Cc1cc2c(C(N)=O)cc(F)cc2c(-c2ccc3c4c(ccnc24)CCO3)c1[C@H](OC(C)(C)C)C(=O)O` [Compound 113B, (S)-2-tert-Butoxy-2-((R)-5-carbamoyl-1-(2,3-dihydropyrano[4,3,2-de]quinolin-7-yl)-7-fluoro-3-methylnaphthalen-2-yl)acetic acid] is 460 nM.
With `Cc1cc2cc(C(F)F)c(F)cc2c(-c2ccc3c4c(ccnc24)CCO3)c1[C@H](OC(C)(C)C)C(=O)O` (atropisomer, axis not shown) [Compound 164], the EC50 under setting [1] worked out at 25000 nM.
On the same count and under the same terms, the value for `COc1ccc2c(-c3ccc(Cl)cc3)c(C(OC(C)(C)C)C(=O)O)c(C)cc2c1` (stereo not shown) [Compound 48, 2-tert-Butoxy-2-(1-(4-chlorophenyl)-6-methoxy-3-methylnaphthalen-2-yl)acetic acid] was 210 nM.
For the molecule `Cc1cc2cc(C(N)=O)c(F)cc2c(-c2ccc3c4c(ccnc24)CCO3)c1[C@H](OC(C)(C)C)C(=O)O` [Compound 106B, (S)-2-tert-Butoxy-2-((R)-6-carbamoyl-1-(2,3-dihydropyrano[4,3,2-de]quinolin-7-yl)-7-fluoro-3-methylnaphthalen-2-yl)acetic acid], under setting [2], the EC50 was determined as 91 nM.
For the setting “Human immunodeficiency virus 1, IIIB, MT4, 120 h”, `Cc1cc2c(C#CCN(C)C)cccc2c(-c2ccc(Cl)cc2)c1C(OC(C)(C)C)C(=O)O` (stereo not shown) [Compound 39, 2-tert-Butoxy-2-(1-(4-chlorophenyl)-5-(3-(dimethylamino)prop-1-ynyl)-3-methylnaphthalen-2-yl)acetic acid] displayed an EC50 of 700 nM.
In the case of `Cc1cc2ccc(Cl)cc2c(-c2ccc3c4c(ccnc24)CCO3)c1C(OC(C)(C)C)C(=O)O` (racemic) [Compound 124, (±)-(S)-2-tert-butoxy-2-((R)-7-chloro-1-(2,3-dihydropyrano[4,3,2-de]quinolin-7-yl)-3-methylnaphthalen-2-yl)acetic acid], under setting [2], the EC50 turned out to be 150 nM.
On the same count and under the same terms, the figure for `Cc1cc2ccccc2c(-c2ccc3c4c(ccnc24)CCO3)c1[C@H](OC(C)(C)C)C(=O)O` [Compound 161] is 4700 nM; for `Cc1c([C@H](OC(C)(C)C)C(=O)O)c(-c2ccc3c4c(ccnc24)CCO3)c2ccccc2c1F` [Compound 122, (2S)-2-tert-butoxy-2-((R)-1-(2,3-dihydropyrano[4,3,2-de]quinolin-7-yl)-4-fluoro-3-methylnaphthalen-2-yl)acetic acid] it is 36 nM.
With `Cc1cc2ccc(Cl)cc2c(-c2ccc(Cl)cc2)c1C(OC(C)(C)C)C(=O)O` (stereo not shown) [Compound 149, 2-tert-Butoxy-2-(7-chloro-1-(4-chlorophenyl)-3-methylnaphthalen-2-yl)acetic acid], the EC50 under setting [1] amounted to 200 nM.
Same read-out and setting: the figure for `Cc1c(C(OC(C)(C)C)C(=O)O)c(-c2ccc(Cl)cc2)c2ccccc2c1-c1cnc(N)nc1` (stereo not shown) [Compound 145, 2-(4-(2-Aminopyrimidin-5-yl)-1-(4-chlorophenyl)-3-methylnaphthalen-2-yl)-2-tert-butoxyacetic acid] is 50 nM.
`Cc1cc2ccccc2c(-c2cccc3cccnc23)c1[C@H](OC(C)(C)C)C(=O)O` [Compound 4K, (S)-2-tert-butoxy-2-((R)-3-methyl-1-(quinolin-8-yl)naphthalen-2-yl)acetic acid]: the EC50 under setting [2] was 301 nM.
For `Cc1cc2ccc(CCC3CCCC3)cc2c(-c2ccc(Cl)cc2)c1C(OC(C)(C)C)C(=O)O` (stereo not shown) [Compound 90, 2-tert-Butoxy-2-(1-(4-chlorophenyl)-7-(2-cyclopentylethyl)-3-methylnaphthalen-2-yl)acetic acid], under setting [1], the EC50 stood at 31000 nM.
Same read-out and setting: the value for `Cc1cc2c(F)cccc2c(-c2ccc(Cl)cc2)c1C(OC(C)(C)C)C(=O)O` (stereo not shown) [Compound 46, 2-tert-Butoxy-2-(1-(4-chlorophenyl)-5-fluoro-3-methylnaphthalen-2-yl)acetic acid] was 1400 nM; that for `Cc1cc2c(C(N)=O)cc(F)cc2c(-c2ccc3c4c(ccnc24)CCO3)c1[C@H](OC(C)(C)C)C(=O)O` (atropisomer, axis not shown) [Compound 155] was 29000 nM.
`CNC(=O)c1cc2cc(C)c([C@H](OC(C)(C)C)C(=O)O)c(-c3ccc4c5c(ccnc35)CCO4)c2cc1F` [Compound 107, (S)-2-tert-Butoxy-2-((R)-1-(2,3-dihydropyrano[4,3,2-de]quinolin-7-yl)-7-fluoro-3-methyl-6-(methylcarbamoyl)naphthalen-2-yl)acetic acid]: the EC50 under setting [2] is 92 nM.
